What follows are molecules tested against sodium channel isoforms (Homo sapiens, UniProt P35498). Conditions: area under the sodium current trace, step from −120 mV to 0 mV, HEK cells.
Format: cell-based
Protocol: The sodium channel isoforms of interest are stably expressed in Human Embryonic Kidney Cells and the currents that flow through those channels in response to a depolarizing voltage clamp step from −120 mV to 0 mV are measured in the presence of increasing concentrations of the chemical agents. The area under the sodium current trace which correlates to the magnitude of sodium flux through the cell membrane is used to quantify the effects on gating of the channels. Other parameters that are measured in the assay include the peak current, time constant of open state inactivation and the voltage dependence of steady state inactivation properties. The concentration responses are used to determine potency of each chemical agents effects on modulating the sodium channel isoform gating. Such techniques are known to those skilled in the art, and may be developed, using current technologies, into low or medium throughput assays for evaluating compounds for their ability to modulate sodium channel behaviour.

SMILES	Empirical Emax	EC50
CC(C)c1ncc(C(=O)Nc2c(-c3ccccc3F)ccnc2C2CC(F)(F)C2)cn1 [Example 32, N-(2-(3,3-difluorocyclobutyl)-4-(2-fluorophenyl)pyridin-3-yl)-2-isopropylpyrimidine-5-carboxamide]	+++ (+++ indicates a value from 5.0 up to 7.5 μM)	–
O=C(Nc1c(-c2cc(F)ccc2F)ccnc1C1CCC(F)(F)CC1)c1cnc(N2C3CCC2CC3)nc1 [Example 177, 2-(7-azabicyclo[2.2.1]heptan-7-yl)-N-(2-(4,4-difluorocyclohexyl)-4-(2,5-difluorophenyl)pyridin-3-yl)pyrimidine-5-carboxamide]	–	< 1 µM
CC(C)c1ncc(C(=O)Nc2c(-c3ccccc3F)ccnc2C2CC3(C2)CC3(F)F)cn1 (centres unmarked) [Example 22, N-[2-(2,2-difluorospiro[2.3]hexan-5-yl)-4-(2-fluorophenyl)-3-pyridyl]-2-isopropyl-pyrimidine-5-carboxamide]	+++ (+++ indicates a value from 5.0 up to 7.5 μM)	–
O=C(Nc1ccc(Cl)nc1)c1c(-c2ccccc2F)ccnc1C1CCCC1 [Example 49, N-(6-chloropyridin-3-yl)-2-cyclopentyl-4-(2-fluorophenyl)nicotinamide]	+ (+ indicates a value less than 2.0 μM)	–
CC(C)c1ncc(C(=O)Nc2c(-c3ccccc3)ccnc2C2CCCN2)cn1 (centres unmarked) [Example 40, 2-isopropyl-N-(4-phenyl-2-(pyrrolidin-2-yl)pyridin-3-yl)pyrimidine-5-carboxamide]	+ (+ indicates a value less than 2.0 μM)	–
c1ccc(-c2ccnc(C3CCOCC3)c2-c2nc3c([nH]2)COCC3)cc1 [Example 45, 2-(4-phenyl-2-(tetrahydro-2H-pyran-4-yl)pyridin-3-yl)-3,4,6,7-tetrahydropyrano[3,4-d]imidazole]	+ (+ indicates a value less than 2.0 μM)	–
CC(C)c1ncc(C(=O)Nc2c(-c3ccccc3)ccnc2C23CCOCC2C3)cn1 (racemic) [Example 12, (±)—N-(2-(3-oxabicyclo[4.1.0]heptan-6-yl)-4-phenylpyridin-3-yl)-2-isopropylpyrimidine-5-carboxamide]	+ (+ indicates a value less than 2.0 μM)	–
CC(C)c1ncc(C(=O)Nc2c(-c3ccccc3F)ccnc2C2CC(F)(F)CN2C(=O)OC(C)(C)C)cn1 (centres unmarked) [Example 31, tert-butyl 4,4-difluoro-2-[4-(2-fluorophenyl)-3-[(2-isopropylpyrimidine-5-carbonyl)amino]-2-pyridyl]pyrrolidine-1-carboxylate]	+ (+ indicates a value less than 2.0 μM)	–
CC(C)c1ncc(C(=O)Nc2c(-c3ccccc3F)ccnc2C2CCCC(F)(F)CC2)cn1 (racemic) [Example 37, (±)-N-(2-(4,4-difluorocycloheptyl)-4-(2-fluorophenyl)pyridin-3-yl)-2-isopropylpyrimidine-5-carboxamide]	+++ (+++ indicates a value from 5.0 up to 7.5 μM)	–
CC(C)c1ncc(C(=O)Nc2c(-c3ccccc3F)ccnc2[C@H]2CC[C@@H](F)CC2)cn1 [Example 33]	+++ (+++ indicates a value from 5.0 up to 7.5 μM)	–
CC(C)c1ncc(C(=O)Nc2c(-c3ccccc3F)ccnc2C2CC3(COC3)C2)cn1 [Example 36, N-(4-(2-fluorophenyl)-2-(2-oxaspiro[3.3]heptan-6-yl)pyridin-3-yl)-2-isopropylpyrimidine-5-carboxamide]	+++ (+++ indicates a value from 5.0 up to 7.5 μM)	–
CC(C)c1ncc(C(=O)Nc2c(-c3ccccc3)ccnc2C2CCCN2C(=O)OC(C)(C)C)cn1 (racemic) [Example 13, (±)-tert-butyl 2-(3-(2-isopropylpyrimidine-5-carboxamido)-4-phenylpyridin-2-yl)pyrrolidine-1-carboxylate]	+ (+ indicates a value less than 2.0 μM)	–
CC(C)c1ncc(C(=O)Nc2c(-c3ccccc3F)ccnc2C2CCC3(C2)CC3(F)F)cn1 (centres unmarked) [Example 27, N-[2-(2,2-difluorospiro[2.4]heptan-6-yl)-4-(2-fluorophenyl)-3-pyridyl]-2-isopropyl-pyrimidine-5-carboxamide]	+++ (+++ indicates a value from 5.0 up to 7.5 μM)	–
O=C(Nc1c(-c2cc(F)ccc2F)ccnc1C1CCC(F)(F)CC1)c1cnc(N2C3CCC2COC3)nc1 [Example 159, 2-(3-oxa-8-azabicyclo[3.2.1]octan-8-yl)-N-(2-(4,4-difluorocyclohexyl)-4-(2,5-difluorophenyl)pyridin-3-yl)pyrimidine-5-carboxamide]	–	< 1 µM
CC(C)c1ncc(C(=O)Nc2c(-c3ccccn3)ccnc2C2CCC(F)(F)CC2)cn1 [Example 55, N-(2′-(4,4-difluorocyclohexyl)-[2,4′-bipyridin]-3′-yl)-2-isopropylpyrimidine-5-carboxamide]	+++ (+++ indicates a value from 5.0 up to 7.5 μM)	–
CC(C)c1ccc(NC(=O)c2c(-c3ccccc3F)ccnc2C2=CCOCC2)cn1 [Example 52]	+ (+ indicates a value less than 2.0 μM)	–
CC(C)c1ncc(C(=O)Nc2c(-c3ccccc3F)ccnc2[C@H]2CC[C@@H](C(F)(F)F)CC2)cn1 [Example 29, N-[4-(2-fluorophenyl)-2-[4-(trifluoromethyl)cyclohexyl]-3-pyridyl]-2-isopropyl-pyrimidine-5-carboxamide]	+ (+ indicates a value less than 2.0 μM)	–
CC(C)c1ncc(C(=O)Nc2c(-c3ccccc3F)ccnc2[C@H]2CC[C@H](F)CC2)cn1 [Example 34]	+++ (+++ indicates a value from 5.0 up to 7.5 μM)	–
CC(C)c1ncc(C(=O)Nc2c(-c3ccccc3F)ccnc2C2CCCC(F)(F)C2)cn1 (centres unmarked) [Example 26, N-[2-(3,3-difluorocyclohexyl)-4-(2-fluorophenyl)-3-pyridyl]-2-isopropyl-pyrimidine-5-carboxamide]	+++ (+++ indicates a value from 5.0 up to 7.5 μM)	–
CC(C)c1ncc(C(=O)Nc2c(-c3ccccc3F)ccnc2C2CCCCO2)cn1 (centres unmarked) [Example 18, N-[4-(2-fluorophenyl)-2-tetrahydropyran-2-yl-3-pyridyl]-2-isopropyl-pyrimidine-5-carboxamide]	+++ (+++ indicates a value from 5.0 up to 7.5 μM)	–
CC(C)c1ncc(C(=O)Nc2c(C3=CCCCO3)ccnc2C2CCC(F)(F)CC2)cn1 [Example 54, N-(2-(4,4-difluorocyclohexyl)-4-(3,4-dihydro-2H-pyran-6-yl)pyridin-3-yl)-2-isopropylpyrimidine-5-carboxamide]	++++ (++++ indicates a value greater than 7.5)	–
CC(C)c1ncc(C(=O)Nc2c(-c3ccccc3F)ccnc2C2CC3(C2)CC(F)(F)C3)cn1 [Example 19, N-[2-(2,2-difluorospiro[3.3]heptan-6-yl)-4-(2-fluorophenyl)-3-pyridyl]-2-isopropyl-pyrimidine-5-carboxamide]	++ (++ indicates a value from 2.0 up to 5.0 μM)	–
CC(C)Oc1ncc(C(=O)Nc2c(-c3cc(F)ccc3F)ccnc2C2CCC(F)(F)CC2)cn1 [Example 7, N-[2-(4,4-difluorocyclohexyl)-4-(2,5-difluorophenyl)-3-pyridyl]-2-isopropoxy-pyrimidine-5-carboxamide]	++++ (++++ indicates a value greater than 7.5)	–
CC(C)c1ncc(C(=O)Nc2c(-c3cc(F)ccc3F)ccnc2C2CCC(F)(F)CO2)cn1 (centres unmarked) [Example 9, N-[4-(2,5-difluorophenyl)-2-(5,5-difluorotetrahydropyran-2-yl)-3-pyridyl]-2-isopropyl-pyrimidine-5-carboxamide]	+++ (+++ indicates a value from 5.0 up to 7.5 μM)	–
CC(C)c1ncc(C(=O)Nc2c(-c3ccccc3F)ccnc2C2CCC3(CC2)CC3)cn1 [Example 28, N-[4-(2-fluorophenyl)-2-spiro[2.5]octan-6-yl-3-pyridyl]-2-isopropyl-pyrimidine-5-carboxamide]	++ (++ indicates a value from 2.0 up to 5.0 μM)	–
CC(C)Oc1ncc(C(=O)Nc2c(-c3ccccc3F)ccnc2C2CCC(F)(F)CC2)cn1 [Example 4, N-[2-(4,4-difluorocyclohexyl)-4-(2-fluorophenyl)-3-pyridyl]-2-isopropoxy-pyrimidine-5-carboxamide]	++++ (++++ indicates a value greater than 7.5)	–
CC(C)c1ncc(C(=O)Nc2c(-c3ccccc3F)ccnc2C2CCCOC2)cn1 (centres unmarked) [Example 16, N-[4-(2-fluorophenyl)-2-tetrahydropyran-3-yl-3-pyridyl]-2-isopropyl-pyrimidine-5-carboxamide]	++ (++ indicates a value from 2.0 up to 5.0 μM)	–
Fc1ccc(F)c(-c2ccnc(C3CCC(F)(F)CC3)c2-c2nc3c([nH]2)COCC3)c1 [Example 47, 2-(2-(4,4-difluorocyclohexyl)-4-(2,5-difluorophenyl)pyridin-3-yl)-3,4,6,7-tetrahydropyrano[3,4-d]imidazole]	+++ (+++ indicates a value from 5.0 up to 7.5 μM)	–
CC(C)c1ncc(C(=O)Nc2c(-c3ccccc3F)ccnc2C2CCC(F)(F)CC2)cn1 [Example 15, N-[2-(4,4-difluorocyclohexyl)-4-(2-fluorophenyl)-3-pyridyl]-2-isopropyl-pyrimidine-5-carboxamide]	++++ (++++ indicates a value greater than 7.5)	–

Source: patent publication US20250129044A1 (priority 2021, published 2025)
